In ChEMBL document CHEMBL1201862, “PubChem BioAssay data set” (2004):
Active and inactive are the calls of the source. Unless noted, the rule behind the calls is not given here.

Experiments:
[1] = Late stage assay provider results from the probe development effort to identify selective inhibitors of heat shock protein 90 (HSP90): Absorbance-based cell proliferation assay in SKBR3 cells.; format: functional; conditions: SK-BR-3
[2] = Late stage assay provider results from the probe development effort to identify selective inhibitors of heat shock protein 90 (HSP90): Absorbance-based cell proliferation assay in MCF7 cells.; format: functional
[3] = NIH/3T3 fibroblast cytotoxicity, dose response, cytotoxicity control, cell-based, plate reader, dry powder, set 2 (AID 652280); format: functional; conditions: NIH3T3
[4] = T. cruzi growth inhibition in host cells, dose response, cell-based, plate reader, dry powder, set 2 (AID 652275); format: functional
[5] = A Cell-Based Confirmatory Screen for Compounds that Inhibit VEEV, TC-83 (8).; format: functional
[6] = Keap1 Kelch-Nrf2 peptide binding inhibitors, dose response, biochemical, fluorescence polarization, dry powder, set 3 (AID 651806)
[7] = target: Metabotropic glutamate receptor 3 (Rattus norvegicus, UniProt P31422); experiment: mGlu3 negative allosteric modulator potency, dose response, HEK/GIRK cells, thallium flux, rat (AID 651839); format: functional
Metabotropic glutamate receptor 3, sequence (P31422 whole entry): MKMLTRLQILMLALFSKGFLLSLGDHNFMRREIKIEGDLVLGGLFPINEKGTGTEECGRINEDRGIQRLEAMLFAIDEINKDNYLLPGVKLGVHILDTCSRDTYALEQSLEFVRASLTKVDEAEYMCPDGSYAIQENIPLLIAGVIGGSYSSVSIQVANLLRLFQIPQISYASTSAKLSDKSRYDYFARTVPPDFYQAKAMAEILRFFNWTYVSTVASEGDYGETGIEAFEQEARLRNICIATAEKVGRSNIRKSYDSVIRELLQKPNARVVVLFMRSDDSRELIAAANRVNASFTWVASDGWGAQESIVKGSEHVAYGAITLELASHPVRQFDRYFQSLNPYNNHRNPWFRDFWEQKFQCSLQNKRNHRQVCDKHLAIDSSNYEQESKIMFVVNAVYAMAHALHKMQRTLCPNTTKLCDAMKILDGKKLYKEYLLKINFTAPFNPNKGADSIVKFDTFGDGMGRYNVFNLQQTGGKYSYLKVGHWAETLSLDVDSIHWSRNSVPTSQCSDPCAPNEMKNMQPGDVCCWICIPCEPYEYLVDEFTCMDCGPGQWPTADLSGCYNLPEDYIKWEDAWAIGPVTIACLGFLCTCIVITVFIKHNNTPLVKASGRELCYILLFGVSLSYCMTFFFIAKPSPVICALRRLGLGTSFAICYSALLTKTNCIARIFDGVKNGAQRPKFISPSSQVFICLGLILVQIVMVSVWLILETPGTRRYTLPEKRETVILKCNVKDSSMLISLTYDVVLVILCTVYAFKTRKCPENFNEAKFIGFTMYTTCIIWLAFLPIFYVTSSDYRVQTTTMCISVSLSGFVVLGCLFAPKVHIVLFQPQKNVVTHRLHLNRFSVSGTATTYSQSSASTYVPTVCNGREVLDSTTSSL

Structure (SMILES): COc1ccccc1NC(=O)c1cc(=O)c(OC)c[nH]1
- IC50 [1]: > 100 µM (inactive)
- IC50 [2]: > 100 µM (inactive)

Structure (SMILES): CC(C)(C)[S@@+]([O-])N1Cc2cc(C(=O)NCc3ccc4c(c3)OCO4)nc(-c3cccc(-c4ccncc4)c3)c2[C@H]1CCO
- AC50 [3]: 8.56 µM (active)
- AC50 [4]: 0.341 µM (active)

Structure (SMILES): CN1CCN(C)/C(=N/c2ccc(F)cc2C(=O)Nc2ccccc2)C1
- IC50 [5]: 6.39 µM (active)

Structure (SMILES): O=C(O)Cc1ccccc1C(=O)N1CCc2ccccc2[C@H]1CN1C(=O)c2ccccc2C1=O
- AC50 [6]: 61.4 µM (active)

Structure (SMILES): COc1ccc(C#Cc2ccc(C(=O)N3CCC(OC)C3)cc2)cc1 (configuration not stated)
- IC50 [7]: 10.7 µM (active)
